The values below come from PubChem BioAssay (NCI).

Test systems include 786-0 renal; COLO 205 colon; EKVX NSCLC; HCT-15 colon; HT29 colon; MCF7 breast; MDA-MB-435; MOLT-4 leukemia; NCI-H23 lung; NCI-H522 lung; OVCAR-8 ovarian; RPMI-8226 leukemia; RXF 393 renal; SF-268 CNS; SF-295 CNS; SK-MEL-2 melanoma; SK-MEL-5 melanoma; SNB-19 CNS; SW-620 colon; UACC-257 melanoma.
What all share (experiment): DTP human tumour cell line panel, 48 h

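Dose response: 5 concentrations. Exposure: 48 h. Format: 96-well plates. Endpoint: linear interpolation; highest concentration if not reached. TGI: total growth inhibition.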

One may read the TGI as the concentration at which net growth stops. As for `O=NN1C(c2ccccc2)CC(=NO)CC1c1ccccc1` (stereo unspecified), the TGI with 786-0 renal, in the experiment on COLO 205 colon, in the experiment on EKVX NSCLC, with HCT-15 colon, with HT29 colon and with MCF7 breast was more than 100 µM each time. Moreover, the total growth inhibition concentration (TGI) with MDA-MB-435, in the experiment on MOLT-4 leukemia, in the experiment with NCI-H23 lung, in the experiment on NCI-H522 lung, in the experiment on OVCAR-8 ovarian and in the experiment on RPMI-8226 leukemia was more than 100 µM each time. In addition, the TGI in the experiment on RXF 393 renal, in the experiment on SF-268 CNS, in the experiment on SF-295 CNS, in the experiment with SK-MEL-2 melanoma, in the experiment on SK-MEL-5 melanoma and in the experiment with SNB-19 CNS was more than 100 µM each time. Moreover, the concentration for total growth inhibition (TGI) with SW-620 colon and in the experiment on UACC-257 melanoma was more than 100 µM throughout.

For `COC(=O)C1CC2CCC1(O[Si](C(C)C)(C(C)C)C(C)C)C(O)C2` (stereo unspecified), the TGI in the experiment on 786-0 renal is 31.5 µM; in the experiment on COLO 205 colon it was 71.2 µM; in the experiment on EKVX NSCLC it was 33.6 µM; in the experiment with HCT-15 colon, 30.6 µM; in the experiment with HT29 colon it was 30.2 µM; in the experiment on MCF7 breast, 28.4 µM. The concentration for total growth inhibition (TGI) worked out at 30.9 µM in the experiment on MDA-MB-435; 30.1 µM in the experiment on MOLT-4 leukemia; 44.9 µM with NCI-H23 lung; 44.7 µM in the experiment on NCI-H522 lung; 28.1 µM with OVCAR-8 ovarian; 40.7 µM in the experiment on RPMI-8226 leukemia. Moreover, the total growth inhibition concentration (TGI) with RXF 393 renal came out at 28.8 µM; in the experiment with SF-268 CNS, 79.2 µM; in the experiment on SF-295 CNS, 47.2 µM; with SK-MEL-2 melanoma it was 32.1 µM; in the experiment with SK-MEL-5 melanoma, 61.7 µM; in the experiment with SNB-19 CNS, 44.2 µM. This compound also yielded a TGI with SW-620 colon of 60.8 µM.

Consider `CC1(C)C2C=C(CCN3CCOCC3)CC1C2` (stereo unspecified), for which the TGI in the experiment on 786-0 renal, in the experiment with COLO 205 colon, in the experiment with EKVX NSCLC, in the experiment with HCT-15 colon, in the experiment with HT29 colon and in the experiment on MCF7 breast was more than 100 µM each time. The TGI with MDA-MB-435, in the experiment with MOLT-4 leukemia, with NCI-H23 lung, in the experiment with NCI-H522 lung, with OVCAR-8 ovarian and in the experiment with RPMI-8226 leukemia was more than 100 µM in each case. In addition, the total growth inhibition concentration (TGI) with RXF 393 renal, with SF-268 CNS, in the experiment with SF-295 CNS, in the experiment with SK-MEL-2 melanoma, in the experiment with SK-MEL-5 melanoma and in the experiment with SNB-19 CNS was more than 100 µM each time. For the same compound, the TGI with SW-620 colon and with UACC-257 melanoma was more than 100 µM each time.

In the case of `CCN1CCC(O)(c2ccc(Oc3ccccc3)cc2)C(C(=O)c2ccc(Oc3ccccc3)cc2)C1` (stereo unspecified), the total growth inhibition concentration (TGI) with 786-0 renal was found to be 18.7 µM; with COLO 205 colon, 30 µM; in the experiment with EKVX NSCLC, 36.9 µM; in the experiment on HCT-15 colon, 25.7 µM; in the experiment with HT29 colon, 26.4 µM; with MCF7 breast, 19.5 µM. Besides, the TGI came to 26.2 µM in the experiment on MDA-MB-435; 32.1 µM with MOLT-4 leukemia; 27.7 µM in the experiment on NCI-H23 lung; 43.9 µM in the experiment on NCI-H522 lung; 38.6 µM in the experiment with OVCAR-8 ovarian; 5.63 µM in the experiment with RPMI-8226 leukemia. Moreover, the TGI amounted to 53.4 µM with RXF 393 renal; 35.6 µM in the experiment with SF-268 CNS; 27.5 µM in the experiment with SF-295 CNS; 30.1 µM with SK-MEL-2 melanoma; 25.7 µM with SK-MEL-5 melanoma; 32.6 µM with SNB-19 CNS. The TGI in the experiment with SW-620 colon turned out to be 26.4 µM; in the experiment with UACC-257 melanoma, 26.3 µM.

In the case of `Cc1cc2c(cc1Cl)SC(NNC(=O)c1ccco1)=NS2(=O)=O`, the TGI with 786-0 renal, in the experiment on COLO 205 colon, in the experiment with EKVX NSCLC, in the experiment with HCT-15 colon, with HT29 colon and with MCF7 breast was more than 10 µM throughout. The TGI with MDA-MB-435, in the experiment on MOLT-4 leukemia, in the experiment on NCI-H23 lung, with NCI-H522 lung, in the experiment with OVCAR-8 ovarian and in the experiment on RPMI-8226 leukemia was more than 10 µM in each case. In addition, the TGI in the experiment on RXF 393 renal, with SF-268 CNS, in the experiment on SF-295 CNS, in the experiment on SK-MEL-2 melanoma, in the experiment on SK-MEL-5 melanoma and in the experiment with SNB-19 CNS was more than 10 µM throughout. Further, the total growth inhibition concentration (TGI) with SW-620 colon and in the experiment with UACC-257 melanoma was more than 10 µM each time.

`CN(C)CCCNC(=O)c1c(O)c2ccccc2[nH]c1=O`: the TGI in the experiment with 786-0 renal, in the experiment on COLO 205 colon, with EKVX NSCLC, in the experiment on HCT-15 colon, in the experiment on HT29 colon and in the experiment with MCF7 breast was more than 100 µM each time. Besides, the TGI with MDA-MB-435, with MOLT-4 leukemia, in the experiment on NCI-H23 lung, in the experiment with NCI-H522 lung, in the experiment on OVCAR-8 ovarian and in the experiment with RPMI-8226 leukemia was more than 100 µM in each case. Also, the total growth inhibition concentration (TGI) in the experiment with RXF 393 renal, with SF-268 CNS, with SF-295 CNS, in the experiment on SK-MEL-2 melanoma, with SK-MEL-5 melanoma and in the experiment with SW-620 colon was more than 100 µM in each case. Further, the TGI with UACC-257 melanoma is more than 100 µM.

For `CC(Cc1ccccc1)Nc1ncnc2c1ncn2C1OC(CO)CC1O` (stereo unspecified), the total growth inhibition concentration (TGI) in the experiment with 786-0 renal, in the experiment with COLO 205 colon, in the experiment on EKVX NSCLC, with HCT-15 colon, with HT29 colon and in the experiment on MCF7 breast was more than 100 µM in each case. The TGI in the experiment with MDA-MB-435, in the experiment on MOLT-4 leukemia, with NCI-H23 lung, in the experiment with NCI-H522 lung, with OVCAR-8 ovarian and in the experiment with RPMI-8226 leukemia was more than 100 µM in each case. In addition, the TGI in the experiment with RXF 393 renal is more than 100 µM; with SF-268 CNS it was more than 100 µM; with SF-295 CNS, 6.21 µM; in the experiment on SK-MEL-2 melanoma, more than 100 µM; with SK-MEL-5 melanoma, more than 100 µM; with SNB-19 CNS, more than 100 µM. The TGI with SW-620 colon and in the experiment on UACC-257 melanoma was more than 100 µM throughout.

`Cn1c(=O)c2c(nc3n(CCCCl)c(=O)ccn23)n(C)c1=O`: the concentration for total growth inhibition (TGI) in the experiment with 786-0 renal, in the experiment with COLO 205 colon, in the experiment on EKVX NSCLC, in the experiment on HCT-15 colon, in the experiment with HT29 colon and with MCF7 breast was more than 100 µM each time. For the same compound, the TGI in the experiment on MDA-MB-435, with MOLT-4 leukemia, in the experiment on NCI-H23 lung, in the experiment on NCI-H522 lung, in the experiment with OVCAR-8 ovarian and in the experiment on RPMI-8226 leukemia was more than 100 µM in each case. Moreover, the TGI in the experiment on RXF 393 renal, in the experiment on SF-268 CNS, in the experiment on SF-295 CNS, with SK-MEL-2 melanoma, in the experiment on SK-MEL-5 melanoma and in the experiment with SNB-19 CNS was more than 100 µM in each case. The concentration for total growth inhibition (TGI) with SW-620 colon and in the experiment with UACC-257 melanoma was more than 100 µM in each case.

In the case of `COc1ccc(/C=C2\NC(=S)N(/C=C3\C(=O)Oc4ccccc4C3=O)C2=O)cc1OC`, the TGI with 786-0 renal, with COLO 205 colon, in the experiment with EKVX NSCLC, in the experiment with HCT-15 colon, in the experiment on HT29 colon and in the experiment on MCF7 breast was more than 100 µM throughout. For the same compound, the concentration for total growth inhibition (TGI) with MDA-MB-435, with MOLT-4 leukemia, in the experiment with NCI-H23 lung, with NCI-H522 lung, with OVCAR-8 ovarian and in the experiment on RPMI-8226 leukemia was more than 100 µM in each case. Also, the TGI in the experiment on RXF 393 renal, in the experiment with SF-268 CNS, in the experiment on SF-295 CNS, in the experiment with SK-MEL-2 melanoma, in the experiment on SK-MEL-5 melanoma and in the experiment with SNB-19 CNS was more than 100 µM throughout. Moreover, the TGI in the experiment with SW-620 colon and in the experiment on UACC-257 melanoma was more than 100 µM throughout.

For the compound `CN1Cc2cc3cc4c(cc3nc2N(C)C1)OCCO4`, the total growth inhibition concentration (TGI) in the experiment on 786-0 renal, in the experiment on COLO 205 colon, with EKVX NSCLC, in the experiment with HCT-15 colon, in the experiment on HT29 colon and with MCF7 breast was more than 100 µM each time. Further, the TGI in the experiment with MDA-MB-435, in the experiment with MOLT-4 leukemia, in the experiment on NCI-H522 lung, in the experiment on OVCAR-8 ovarian, in the experiment with RPMI-8226 leukemia and with RXF 393 renal was more than 100 µM each time. Moreover, the TGI in the experiment on SF-268 CNS, with SF-295 CNS, in the experiment with SK-MEL-2 melanoma, in the experiment with SK-MEL-5 melanoma, in the experiment with SNB-19 CNS and in the experiment with SW-620 colon was more than 100 µM each time. Also, the concentration for total growth inhibition (TGI) in the experiment with UACC-257 melanoma was more than 100 µM.

With `N=C(N)C1CN(CCCCCCCCCCN2CC(C(=N)N)C(=O)NC2=O)C(=O)NC1=O` (stereo unspecified), the concentration for total growth inhibition (TGI) in the experiment on 786-0 renal, in the experiment on COLO 205 colon, in the experiment with EKVX NSCLC, in the experiment with HCT-15 colon, with HT29 colon and with MCF7 breast was more than 10 µM throughout. Further, the TGI in the experiment with MDA-MB-435, in the experiment with MOLT-4 leukemia, in the experiment on NCI-H23 lung, with NCI-H522 lung, with OVCAR-8 ovarian and with RPMI-8226 leukemia was more than 10 µM in each case. For the same compound, the TGI in the experiment with RXF 393 renal, in the experiment on SF-295 CNS, with SK-MEL-2 melanoma, with SK-MEL-5 melanoma, in the experiment on SNB-19 CNS and in the experiment with SW-620 colon was more than 10 µM throughout. Moreover, the total growth inhibition concentration (TGI) in the experiment with UACC-257 melanoma was more than 10 µM.
